Experimental data: PMC7038631 (Alzheimer's & dementia : the journal of the Alzheimer's …, 2019)
“Also recorded” adds a separate entry of the source.

Columns and labels:
[1] = test system: untransfected SH-SY5Y cells; conditions: MK-886 0.5, 1 or 2 μM
[2] = test system: WT 2N4R tau monomer; experiment: Single-molecule FRET; assay type: biochemical; conditions: 5 μM, vs buffer or DMSO
[3] = target: tau preformed fibrils (PFF) (Homo sapiens, UniProt P10636); experiment: ThT signal of tau preformed fibrils; assay type: biochemical; conditions: DTT 5 mM
[4] = FRET control cells expressing free fluorophores; assay type: cell-based, human
[5] = target: purified WT tau proteins (Homo sapiens, UniProt P10636); experiment: Heparin induced thioflavin-T; assay type: biochemical
[6] = target: purified recombinant full-length 2N4R wild-type (WT) tau (Homo sapiens, UniProt P10636); experiment: Surface plasmon resonance binding to immobilized WT tau; conditions: read-out: Kd, binding to purified WT tau protein (SPR); steady-state, 25 °C, 1 nM to 5 μM
purified recombinant full-length 2N4R wild-type (WT) tau, sequence (P10636 1-441 isoform P10636-8): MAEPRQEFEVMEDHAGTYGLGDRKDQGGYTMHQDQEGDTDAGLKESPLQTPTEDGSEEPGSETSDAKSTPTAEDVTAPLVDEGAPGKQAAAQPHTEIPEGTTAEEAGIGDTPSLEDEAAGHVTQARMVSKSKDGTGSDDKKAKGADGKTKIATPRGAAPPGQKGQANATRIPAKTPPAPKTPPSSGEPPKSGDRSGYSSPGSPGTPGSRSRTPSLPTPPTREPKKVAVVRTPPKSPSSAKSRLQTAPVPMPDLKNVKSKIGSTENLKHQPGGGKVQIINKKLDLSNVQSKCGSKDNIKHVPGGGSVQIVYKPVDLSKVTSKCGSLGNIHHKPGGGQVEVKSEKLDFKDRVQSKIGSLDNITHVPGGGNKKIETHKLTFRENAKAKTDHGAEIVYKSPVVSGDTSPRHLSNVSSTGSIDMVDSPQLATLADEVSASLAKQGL

purified WT tau proteins, sequence (P10636 1-441 isoform P10636-8): as above
tau preformed fibrils (PFF), sequence (P10636 1-441 isoform P10636-8): as above

## CC(C)c1ccc2c(c1)c(SC(C)(C)C)c(CC(C)(C)C(=O)O)n2Cc1ccc(Cl)cc1 [MK-886]
[1]; UC-112 1 μM
  Rescue of cell cytotoxicity induced by UC-112: did not rescue
[1]; YM-155 1 μM
  Rescue of cell cytotoxicity induced by YM-155: did not rescue
[2]
  smFRET change, N-terminal domain labeled tau construct: minor decrease in FRET
  smFRET change, PRR/MTBR labeled tau construct: substantial increase in FRET
[3]
  Effect on ThT signal from tau PFF: did not reduce
[4]
  Action on cytosolic fluorophores (control FRET): not acting on the cytosolic fluorophores
[5]
  Direct effect on ThT fluorescence: did not have a direct effect
[5]; heparin 0.4 mg/ml, MK-886 0.5 and 5 μM
  Effect on lag phase of tau β-sheet fibril formation (ThT): reduces the lag phase; also recorded: shortens the lag phase
[5]; no heparin
  Nucleation of tau fibril formation without heparin (ThT): unable to nucleate tau fibrillization; also recorded: did not act to nucleate
[6]
  Kd: 178 nM

## O=c1c(O)c(-c2ccc(O)c(O)c2)oc2c(O)c(O)cc(O)c12 [gossypetin]
[3]
  Effect on ThT signal from tau PFF: significant decrease
